Assay results taken from patent US20230210999A1, “TARGETED PROTEASE DEGRADATION (TED) PLATFORM” (EUBULUS BIOTHERAPEUTICS INC., priority 2020, published 2023).

Tests used:
MV4;11 cells = experiment: Cell proliferation experiment (Alamar blue, 72 h), MV4;11; assay type: cell-based, human; details: Homo sapiens, MV4-11, 72 h, MV4;11 cells, 72 h; read-out: Inhibitory activity IC50 of tested compounds on MV4;11 cells
In short: (§1)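 Log-phase cells seeded, then exposed 72 h to test compound in a 5-fold dilution series, duplicate wells per concentration. Growth read by Alamar blue fluorescence; […].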

HL-60 cells = experiment: Cell proliferation experiment, HL-60; assay type: cell-based; details: Homo sapiens, 72 h, read-out: Inhibitory activity IC50 of tested compounds on HL-60 cells
Experimental: (§2) Reagents: RPMI-1640 medium, McCoy's 5A medium, IMDM medium, MEM medium, L-15 medium, fetal bovine serum. Penicillin-Streptomycin double antibody, trypsin, etc., 2-mercaptoethanol, NEAA, pyruvate, etc.
(§3) The cells were cultured in conventional ways, and the cells should be passed at least 2 generations before plating. Cells at the logarithmic growth phase were collected, prepared into single cell suspensions and counted. The concentration of cells was adjusted to the desired concentration, and cells were inoculated into a 96-well cell culture plate at 100 μl per well. 100 μL of complete medium of the test compound were added to each well, set up 2 duplicate wells for each concentration, and diluted with a 5-fold gradient, and continued to culture for 72 h. All cells were subjected to IC50 test for corresponding samples. The experimental results are shown in Test Example 4.
(§4) The fluorescence intensity of each well was detected using the Alarm blue method, and IC50 was calculated.
(§5) IC50 was calculated according to the following formula:
(§6) Y=Max+(Min−Max)/[1+(X/IC50)×Slope]
(§7) wherein Min, Max and Slope represent the minimum, maximum and slope respectively.

Daudi cells = experiment: Cell proliferation experiment, Daudi; assay type: cell-based, human; details: Homo sapiens, Daudi, 72 h, Daudi cells, 72 h; read-out: Inhibitory activity IC50 of tested compounds on Daudi cells
In short: as §1

NCIH82 cells = experiment: Cell proliferation experiment, NCI-H82; assay type: cell-based, human; details: Homo sapiens, NCI-H82, 72 h, NCIH82 cells, 72 h; read-out: Inhibitory activity IC50 of tested compounds on NCIH82 cells
In short: as §1

HT-29 cells = experiment: Cell proliferation experiment, HT-29; assay type: cell-based; details: Homo sapiens; HT-29 cells, 72 h; read-out: Inhibitory activity IC50 of tested compounds on HT-29 cells
Experimental: as §2, §3, §4, §5, §6, §7

U-87MG cells = experiment: Cell proliferation experiment, U-87MG; assay type: cell-based; details: Homo sapiens; U-87MG cells, 72 h; read-out: Inhibitory activity IC50 of tested compounds on U-87MG cells
Experimental: as §2, §3, §4, §5, §6, §7

MDA-MB-231 cells = experiment: Cell proliferation experiment, MDA-MB-231; assay type: cell-based, human; details: Homo sapiens, MDA-MB-231, 72 h, MDA-MB-231 cells, 72 h; read-out: Inhibitory activity IC50 of tested compounds on MDA-MB-231 cells
In short: as §1

HUVEC cells = experiment: Cell proliferation experiment, HUVEC; assay type: cell-based; details: Homo sapiens, 72 h, read-out: Inhibitory activity IC50 of tested compounds on HUVEC cells
Experimental: as §2, §3, §4, §5, §6, §7

Row | SMILES | IC50 (MV4;11 cells) [nM] | IC50 (HL-60 cells) [nM] | IC50 (Daudi cells) [nM] | IC50 (NCIH82 cells) [nM] | IC50 (HT-29 cells) [nM] | IC50 (U-87MG cells) [nM] | IC50 (MDA-MB-231 cells) [nM] | IC50 (HUVEC cells) [nM]
1 | CC[C@@H]1C(=O)N(C)c2cnc(Nc3ccc(C(=O)NCCCOCCOCCNCCC#Cc4cccc5c4CN(C4CCC(=O)NC4=O)C5=O)cc3OC)nc2N1C1CCCC1 (stereo partly shown) [Compound 890] | ≤ 100 | ≤ 1000 | ≤ 100 | ≤ 1000 | 300 to 1000 | 100 to 500 | ≤ 500 | ≤ 1000
2 | CC[C@@H]1C(=O)N(C)c2cnc(Nc3ccc(C(=O)NCCC#Cc4cccc5c4CN(C4CCC(=O)NC4=O)C5=O)cc3OC)nc2N1C1CCCC1 (stereo partly shown) [Compound 891] | 100 to 1000 | ≤ 1000 |  | ≤ 1000 | 300 to 1000 | 100 to 500 |  | 
3 | CC[C@@H]1C(=O)N(C)c2cnc(Nc3ccc(C(=O)NC4CCN(CCCOCCNCCC#Cc5cccc6c5CN(C5CCC(=O)NC5=O)C6=O)CC4)cc3OC)nc2N1C1CCCC1 (stereo partly shown) [Compound 895] | ≤ 100 | ≤ 1000 | 100 to 1000 | ≤ 1000 | 300 to 1000 | 100 to 500 |  | 
4 | CC[C@@H]1C(=O)N(C)c2cnc(Nc3ccc(C(=O)NC4CCN(CCCOCCN(C)CCC#Cc5cccc6c5CN(C5CCC(=O)NC5=O)C6=O)CC4)cc3OC)nc2N1C1CCCC1 (stereo partly shown) [Compound 897] | ≤ 100 | ≤ 1000 | 100 to 1000 | ≤ 1000 | ≤ 300 | 100 to 500 |  | 
5 | CC[C@@H]1C(=O)N(C)c2cnc(Nc3ccc(C(=O)NC4CCN(CCNCCCOCCCC#Cc5cccc6c5CN(C5CCC(=O)NC5=O)C6=O)CC4)cc3OC)nc2N1C1CCCC1 (stereo partly shown) [Compound 899] | ≤ 100 | ≤ 1000 | ≤ 100 | ≤ 1000 | ≤ 300 | ≤ 100 |  | 
6 | CC[C@@H]1C(=O)N(C)c2cnc(Nc3ccc(C(=O)NC4CCN(CCN(C)CCCOCCCC#Cc5cccc6c5CN(C5CCC(=O)NC5=O)C6=O)CC4)cc3OC)nc2N1C1CCCC1 (stereo partly shown) [Compound 900] | ≤ 100 | ≤ 1000 | ≤ 100 | ≤ 1000 | ≤ 300 | ≤ 100 |  | 
7 | CC[C@@H]1C(=O)N(C)c2cnc(Nc3ccc(C(=O)NC4CCN(CCCNCCCOCCCC#Cc5cccc6c5CN(C5CCC(=O)NC5=O)C6=O)CC4)cc3OC)nc2N1C1CCCC1 (stereo partly shown) [Compound 901] | ≤ 100 | ≤ 1000 |  | ≤ 1000 | 300 to 1000 | 100 to 500 |  | 
8 | CC[C@@H]1C(=O)N(C)c2cnc(Nc3ccc(C(=O)NC4CCN(CCOCCCC#Cc5cccc6c5CN(C5CCC(=O)NC5=O)C6=O)CC4)cc3OC)nc2N1C1CCCC1 (stereo partly shown) [Compound 902] |  | ≤ 1000 | ≤ 100 | ≤ 1000 | ≤ 300 | ≤ 100 |  | 
9 | CC[C@@H]1C(=O)N(C)c2cnc(Nc3ccc(C(=O)NC4CCN(CCNCCCOCCC#Cc5cccc6c5CN(C5CCC(=O)NC5=O)C6=O)CC4)cc3OC)nc2N1C1CCCC1 (stereo partly shown) [Compound 903] | ≤ 100 | ≤ 1000 | ≤ 100 | ≤ 1000 | 300 to 1000 | ≤ 100 |  | 
10 | CC[C@@H]1C(=O)N(C)c2cnc(Nc3ccc(C(=O)NC4CCN(CCCNCCCOCCC#Cc5cccc6c5CN(C5CCC(=O)NC5=O)C6=O)CC4)cc3OC)nc2N1C1CCCC1 (stereo partly shown) [Compound 904] | ≤ 100 | ≤ 1000 |  | > 1000 | > 1000 | 500 to 1000 |  | 
11 | CC[C@@H]1C(=O)N(C)c2cnc(Nc3ccc(C(=O)NC4CCN(CCCNCCOCCC#Cc5cccc6c5CN(C5CCC(=O)NC5=O)C6=O)CC4)cc3OC)nc2N1C1CCCC1 (stereo partly shown) [Compound 905] | ≤ 100 | ≤ 1000 |  | > 1000 | > 1000 | 100 to 500 |  | 
12 | CC[C@@H]1C(=O)N(C)c2cnc(Nc3ccc(C(=O)NC4CCN(CCCOCCNCCCC#Cc5cccc6c5CN(C5CCC(=O)NC5=O)C6=O)CC4)cc3OC)nc2N1C1CCCC1 (stereo partly shown) [Compound 918] | ≤ 100 |  | ≤ 100 | ≤ 1000 | 300 to 1000 | 100 to 500 |  | 
13 | CC[C@@H]1C(=O)N(C)c2cnc(Nc3ccc(C(=O)NC4CCN(CCCOCCCN(C)CCCC#Cc5cccc6c5CN(C5CCC(=O)NC5=O)C6=O)CC4)cc3OC)nc2N1C1CCCC1 (stereo partly shown) [Compound 919] | ≤ 100 |  | ≤ 100 | ≤ 1000 | 300 to 1000 | 100 to 500 |  | ≤ 1000
14 | CC[C@@H]1C(=O)N(C)c2cnc(Nc3ccc(C(=O)NCCCOCCOCCN(C)CCC#Cc4cccc5c4CN(C4CCC(=O)NC4=O)C5=O)cc3OC)nc2N1C1CCCC1 (stereo partly shown) [Compound 920] | ≤ 100 |  | ≤ 100 | ≤ 1000 | 300 to 1000 | ≤ 100 |  | ≤ 1000
15 | CC[C@@H]1C(=O)N(C)c2cnc(Nc3ccc(C(=O)NCCCNCCCOCCC#Cc4cccc5c4CN(C4CCC(=O)NC4=O)C5=O)cc3OC)nc2N1C1CCCC1 (stereo partly shown) [Compound 921] | ≤ 100 |  | 100 to 1000 | > 1000 | > 1000 | 100 to 500 |  | ≤ 1000
16 | CC[C@@H]1C(=O)N(C)c2cnc(Nc3ccc(C(=O)NC4CCN(CCCCNCCCC#Cc5cccc6c5CN(C5CCC(=O)NC5=O)C6=O)CC4)cc3OC)nc2N1C1CCCC1 (stereo partly shown) [Compound 922] | ≤ 100 |  | 100 to 1000 | ≤ 1000 | 300 to 1000 | 100 to 500 |  | ≤ 1000
17 | CC[C@@H]1C(=O)N(C)c2cnc(Nc3ccc(C(=O)NC4CCN(CCCCN(C)CCCC#Cc5cccc6c5CN(C5CCC(=O)NC5=O)C6=O)CC4)cc3OC)nc2N1C1CCCC1 (stereo partly shown) [Compound 923] | ≤ 100 |  | ≤ 100 | ≤ 1000 | ≤ 300 | 100 to 500 |  | ≤ 1000
18 | CC[C@@H]1C(=O)N(C)c2cnc(Nc3ccc(C(=O)NC4CCN(CCCOCCN(C)CCCC#Cc5cccc6c5CN(C5CCC(=O)NC5=O)C6=O)CC4)cc3OC)nc2N1C1CCCC1 (stereo partly shown) [Compound 924] | ≤ 100 |  | ≤ 100 | ≤ 1000 | ≤ 300 | 100 to 500 |  | ≤ 1000
19 | CC[C@@H]1C(=O)N(C)c2cnc(Nc3ccc(C(=O)NC4CCC(N5CCN(CCCC(=O)NC#Cc6cccc7c6CN(C6CCC(=O)NC6=O)C7=O)CC5)CC4)cc3OC)nc2N1C1CCCC1 (stereo partly shown) [Compound 926] | ≤ 100 |  | ≤ 100 | ≤ 1000 | 300 to 1000 | 100 to 500 |  | ≤ 1000
20 | CC[C@@H]1C(=O)N(C)c2cnc(Nc3ccc(C(=O)NCCCOCCN(C)CCC#Cc4cccc5c4CN(C4CCC(=O)NC4=O)C5=O)cc3OC)nc2N1C1CCCC1 (stereo partly shown) [Compound 927] | ≤ 100 |  | ≤ 100 | ≤ 1000 | ≤ 300 | ≤ 100 |  | ≤ 1000
21 | CC[C@@H]1C(=O)N(C)c2cnc(Nc3ccc(C(=O)NC4CCN(C5CN(CCC#Cc6cccc7c6CN(C6CCC(=O)NC6=O)C7=O)C5)CC4)cc3OC)nc2N1C1CCCC1 (stereo partly shown) [Compound 928] | ≤ 100 |  | ≤ 100 | ≤ 1000 | ≤ 300 | ≤ 100 |  | ≤ 1000
22 | CC[C@@H]1C(=O)N(C)c2cnc(Nc3ccc(C(=O)NCCCOCCCOCCN(C)CCC#Cc4cccc5c4CN(C4CCC(=O)NC4=O)C5=O)cc3OC)nc2N1C1CCCC1 (stereo partly shown) [Compound 930] | ≤ 100 |  | ≤ 100 | ≤ 1000 | ≤ 300 | ≤ 100 |  | ≤ 1000
23 | CC[C@@H]1C(=O)N(C)c2cnc(Nc3ccc(C(=O)NC4CN(CCCOCCCNCCC#Cc5cccc6c5CN(C5CCC(=O)NC5=O)C6=O)C4)cc3OC)nc2N1C1CCCC1 (stereo partly shown) [Compound 931] | ≤ 100 |  | 100 to 1000 | ≤ 1000 | > 1000 | 500 to 1000 |  | 
24 | CC[C@@H]1C(=O)N(C)c2cnc(Nc3ccc(C(=O)NC4CCN(CCN(C)CCCOCCC#Cc5cccc6c5CN(C5CCC(=O)NC5=O)C6=O)CC4)cc3OC)nc2N1C1CCCC1 (stereo partly shown) [Compound 932] | ≤ 100 |  | ≤ 100 | ≤ 1000 | ≤ 300 | ≤ 100 |  | ≤ 1000
25 | CC[C@@H]1C(=O)N(C)c2cnc(Nc3ccc(C(=O)NC4CCC(N5CCN(CCCNCCC#Cc6cccc7c6CN(C6CCC(=O)NC6=O)C7=O)CC5)CC4)cc3OC)nc2N1C1CCCC1 (stereo partly shown) [Compound 933] | ≤ 100 |  | 100 to 1000 | ≤ 1000 | 300 to 1000 | 100 to 500 |  | ≤ 1000
